From patent US8343912B2, “Antibiotic compositions for the treatment of gram negative infections” (priority 2008, dated 2013)
Marks after values point to notes of the source that are not given here. Numbered stars: 1 amine (or outer) side, 2 acyl side, 3 side chain; on linkers, the order of the positions; unused ones are H or OH. Bridge positions count the residues as written; N and C are the ends. Square brackets hold non-standard residues; d marks the D form. Peptide text beside a SMILES is read from it. * marks the point of attachment. Octanoyl(6-Me) = CCC(C)CCCCC(=O)*; NH(2-ClPh) = Clc1ccccc1N*; Dab = NCC[CH](N)C(=O)O; CO = O=C([*:1])[*:2]

How the values were obtained:
S. maltophilia = test: MIC90, broth microdilution, panel of Gram negative clinical isolates; type: cell-based, Stenotrophomonas maltophilia; settings: 25 strains
Procedure: (§1) To evaluate the potency and spectrum of compounds of Formula (I), (i.e., Compounds designated 5 and 6), a study was conducted that put together a panel of 455 Gram negative strains, which included multi-drug resistant clinical isolates selected from various surveillance programs. Table 3A lists the strains that were included in the study and the activity of Compound 5, Compound 6, and colistin (polymyxin E, abbreviated PME). Strains with acquired resistance to colistin and/or carbapenems and/or broad spectrum cephalosporins were pre-selected and included in all organism groups evaluated.
(§2) MIC testing was performed according to Clinical and Laboratory Standards Institute (CLSI) M7-A7 (2006) broth microdilution methods. Unless otherwise indicated, MIC values are provided in units of micrograms per milliliter.
(§3) One day prior to testing, individual colonies were isolated by streaking onto rich, non-selective Tryptic Soy agar with 5% lysed sheeps blood (TSAB) with incubation at 35-37° C. for 18-24 hours.
(§4) Cultures were prepared by touching 3-5 colonies into 3 mL of Cation adjusted Mueller Hinton Broth (caMHB) in a 14 mL tube (CaMHB was prepared and sterilized according to manufacturer's specifications). Cultures were grown at 37° C. 200 rpm for approximately four hours prior to density adjustment for addition to the MIC assay.
(§5) OD600 of growing cultures was measured and adjusted to approximately 10^5 colony forming units per mL (CFU/mL) in caMHB for MIC inoculation (approximately OD600 0.001).
(§6) Diluted cultures were used to inoculate 50 μL per well in broth microdilution assays (final volume 100 μl per well; compounds were prepared in two-fold dilutions).
(§7) Plates were incubated 16-20 hrs at 37° C., with shaking at 200 rpm.
(§8) OD600 was determined for all wells. Growth was defined as OD600>0.1. MICs were defined as the lowest concentration producing no visible turbidity (OD600<0.1).

E. coli = test: as above; type: cell-based, Escherichia coli; settings: 80 strains; some strains multi-drug resistant
Procedure: as §1, §2, §3, §4, §5, §6, §7, §8

Acinetobacter spp = test: as above; type: cell-based; settings: 81 strains
Procedure: as §1, §2, §3, §4, §5, §6, §7, §8

Citrobacter spp. = test: as above; type: cell-based; settings: 20 strains; some strains multi-drug resistant
Procedure: as §1, §2, §3, §4, §5, §6, §7, §8

Enterobacter = test: as above; type: cell-based; settings: 20 strains; some strains multi-drug resistant
Procedure: as §1, §2, §3, §4, §5, §6, §7, §8

[1] = system: Acinetobacter baumannii 1570; test: MIC, broth microdilution; type: cell-based; settings: for MIC against A. baumannii #1570: Table 8, range of repeated tests
Procedure: as §2, §3, §4, §5, §6, §7, §8
A. baumannii #1570 were grown in cation adjusted Mueller Hinton Broth (caMHB) (catalog #B12322; Fisher Scientific, Pittsburgh, Pa.) at 37° C. MIC testing was performed according to Clinical and Laboratory Standards Institute [CLSI, formerly National Committee for Clinical Laboratory Standards (NCCLS), Wayne, Pa.] guidelines for broth microdilution.
MIC testing was performed according to CLSI (formerly NCCLS) guidelines for broth microdilution.

P. aeruginosa #44 = test: Lung infection in neutropenic mice; type: in vivo; settings: for Log10 CFU/mL lung homogenate ± SD: lungs at 24 h; for ED−3log10 (dose for 3 log10 reduction in bacterial count vs water): lung infection, sc, Compound 5 value corrected for lot potency 711 μg/mg
Procedure: Infection was induced in normal immunocompetent or neutropenic mice by intranasal inoculation of P. aeruginosa #44. […] At 24 hours post-infection, mice were humanely euthanized and the lungs of the mice were removed, homogenized, serially diluted, and plated on agar, to quantitate the bacterial burden.
All of the test compounds were dissolved in sterile water for administration by subcutaneous (sc) injection. […] A series of dilutions of test compounds were prepared in water.
In the lung infection model using P. aeruginosa #44 as the infecting organism, CD-1 mice were made neutropenic by intraperitoneal (ip) administration with 150 mg/kg cyclophosphamide on day-4, followed by a second ip dose of 100 mg/kg cyclophosphamide on day-1. On day 0 a diluted, exponential-phase growing culture of P. aeruginosa #44 corresponding to 1×10^5 or 2.5×10^8 CFU respectively, in 0.1 mL of sterile saline, was inoculated by the intranasal route in mice. Just prior to inoculation, mice were anaesthetized with 60 mg/kg pentobarbital, ip. The actual concentration of bacteria in the inoculum was confirmed by determination of viable counts by dilution plating on tryptic soy agar plates. The number of CFU of bacteria was determined after an incubation of 16 h at 37° C.
Groups of five mice were used for each dose of the test compounds and the vehicle (water) control group. Each group received sc injections of test compounds or vehicle at 1 hour post-infection, and then at 6 hours post-infection for a total of 2 doses. In each study, there were three to five dose groups per test compound.
Eighteen hours after the last injection, the mice were euthanized by asphyxiation with CO2. The lungs were removed aseptically, homogenized in 4 mL of sterile, distilled water and dilution plated on tryptic soy agar plates to quantify bacterial CFU. The number of CFU of bacteria in lungs was determined after an incubation of 16 hours at 37° C. (the CFU per milliliter of homogenate).
The results were expressed as the geometric mean log10 CFU/mL±the standard deviation. The limit of detection was 10 CFU per mL of lung homogenate. Lungs were considered sterile when no CFU were detected on the agar. The efficacy of the test compounds was assessed by comparing the number of log10 CFU/mL measured in the infected and treated mice with control animals treated with water.
Dose response curves of test compounds were generated for each isolate. Regression lines were generated in Microsoft Excel and used to calculate the dose expected to produce a 3 log10 reduction in bacterial count as compared to water-treated group [ED−3 log 10 (mg/kg, sc, BID)].

[2] = Pharmacokinetics/toxicokinetics in repeat-dose studies; type: in vivo, cynomolgus monkey
Procedure: Monkeys were dosed twice or three times daily for seven days with control article (0.9% Sodium Chloride for Injection, USP), 25000 IU/kg Compound 5, 37500 IU/kg Compound 5, or 37500 IU/kg PMB (Alpharma, lot number A1411079). Each administration was given via a targeted 30-minute intravenous infusion.
The following parameters were evaluated: daily clinical observations and qualitative food consumption, body weight (twice prior to the first dosing and at necropsy), urinalysis, hematology, coagulation, serum chemistry, toxicokinetics, gross pathology, organ weights, and histopathology of the kidneys and injection sites, and of the liver and sciatic nerves of control and high dose groups. Animals were evaluated through Study Day 7 and then terminated.
At higher dose levels, a slightly greater than dose-proportional response was evident in systemic exposure (AUC) and peak plasma concentrations (Cmax). The decrease in clearance at these higher doses may explain the non-linear systemic exposure to Compound 5.

[3] = 4.0 mg/kg BID sc, 1 and 6 h post-infection, water control 6.53

Row | Structure (SMILES) | MIC90 S. maltophilia (S. maltophilia) [micrograms/mL] | MIC90 E. coli (E. coli) [micrograms/mL] | MIC90 Acinetobacter spp (Acinetobacter spp) [micrograms/mL] | MIC90 Citrobacter spp. (Citrobacter spp.) [micrograms/mL] | MIC90 Enterobacter (Enterobacter) [micrograms/mL] | MIC against A. baumannii #1570 [1] | Log10 CFU/mL lung homogenate ± SD (P. aeruginosa #44; [3]) [Log10 CFU/mL] | Log10 CFU/mL lung homogenate ± SD (P. aeruginosa #44; 8.0 mg/kg BID sc) [Log10 CFU/mL] | Log10 CFU/mL lung homogenate ± SD (P. aeruginosa #44; 12.0 mg/kg BID sc) [Log10 CFU/mL] | Log10 CFU/mL lung homogenate ± SD (P. aeruginosa #44; 16.0 mg/kg BID sc) [Log10 CFU/mL] | Log10 CFU/mL lung homogenate ± SD (P. aeruginosa #44; 20.0 mg/kg BID sc) [Log10 CFU/mL] | ED−3log10 (dose for 3 log10 reduction in bacterial count vs water) (P. aeruginosa #44) | maximal plasma concentrations (Cmax) relative to Compound 5 ([2]; greater, Day 1, 37,500 IU/kg) | systemic exposure (AUC) relative to Compound 5 ([2]; greater, same activity-normalized dose) [fold] | systemic clearance relative to Compound 5 ([2]; less, Day 1) [fold] | volume of distribution relative to Compound 5 ([2]; lower) | MIC Acinetobacter baumannii 1570 ([1]; Table 3B) [micrograms/mL] | volume of distribution ([2]; all species) | clearance (CL) ([2]; cynomolgus monkey, in vivo)
1 | CCC(C)CCCCC(=O)NC(CCN)C(=O)NC(C(=O)NC(CCN)C(=O)NC1CCNC(=O)C(C(C)O)NC(=O)C(CCN)NC(=O)C(CCN)NC(=O)C(CC(C)C)NC(=O)C(Cc2ccccc2)NC(=O)C(CCN)NC1=O)C(C)O (stereo not shown) [Polymyxin B, polymyxin B, reference compound] ({Octanoyl(6-Me)}-[Dab]T[Dab][Dab][Dab]FL[Dab][Dab]T; lactam 4-C; configuration not given here) | 8 | 2 | 2 | 1 | >64 | 1-2 micrograms/ml | 6.48 ± 1.59 | 5.73 ± 1.92 | 3.47 ± 1.16 | 2.88 ± 1.07 | 2.71 ± 1.09 | 12.97 mg/kg, BID | approximately 2 fold | 2.5 | 2 to 3 | approximately 2 fold |  |  | 
2 | CC(C)C[C@@H]1NC(=O)[C@@H](Cc2ccccc2)NC(=O)[C@H](CCN)NC(=O)[C@@H](NC(=O)[C@H](CCN)NC(=O)[C@@H](NC(=O)[C@H](CCN)NC(=O)Nc2ccccc2Cl)[C@@H](C)O)CCNC(=O)[C@H]([C@@H](C)O)NC(=O)[C@H](CCN)NC(=O)[C@H](CCN)NC1=O [Compound 5, (S)-4-amino-N-((2S,3R)-1-((S)-4-amino-1-oxo-1-((3S,6S,9S,12S,15R,18S,21S)-6,9,18-tris(2-aminoethyl)-15-benzyl-3-((R)-1-hydroxyethyl)-12-isobutyl-2,5,8,11,14,17,20-heptaoxo-1,4,7,10,13,16,19-heptaazacyclotricosan-21-ylamino)butan-2-ylamino)-3-hydroxy-1-oxobutan-2-yl)-2-(3-(2-chlorophenyl)ureido)butanamide] ({NH(2-ClPh)-CO}-[Dab]T[Dab][Dab][Dab][dF]L[Dab][Dab]T; lactam 4-C) | >16 | 2 | 4 | 0.5 | >16 | 2-4 micrograms/ml | 5.49 ± 1.27 | 4.86 ± 1.18 | 4.13 ± 1.46 | 2.56 ± 0.34 | 2.51 ± 0.70 | 9.05^b mg/kg, BID |  |  |  |  | 4 | greater than blood volume | less than hepatic blood flow
